Assay results as given in patent US20110306580A1 (DONG WHA PHARMACEUTICAL CO ., LTD., priority 2009, published 2011).

Tested on: ROS17/2.8 cells
Assay: Cell growth of ROS17/2.8 cells by the MTT method (formed formazan)
Assay type: cell-based, rat
Details: for activity at 0.02 µM: Rattus norvegicus, 2×10^−5M Test Compound solution diluted 1000 fold, read-out: Amount of formed formazan, Solution 8 (Test Compound alone); for activity at 0.02 µM / Amount of formed formazan, Solution 10 (a group of a drug combination): percentage to Solution 7 addition group, about 48 hours, average ± standard deviation of four wells; for Relative index of Solution 10 (a group of a drug combination) / Amount of formed formazan, Solution 10 (a group of a drug combination): Test Compound in combination with 1α,25-dihydroxyvitamin D3; for Relative index of Solution 10 (a group of a drug combination) / Relative index of Solution 8 (Test Compound alone): amount of formed formazan, Solution 7 = 1.00
Method: 100 μL of a 10% FCS-αMEM comprising either DMSO and ethanol (referred to as Solution 7, hereinafter), a Test Compound solution and ethanol (referred to as Solution 8, hereinafter), a 1α,25-dihydroxyvitamin D3 solution and DMSO (referred to as Solution 9, hereinafter) or a Test Compound solution and the 1α,25-dihydroxyvitamin D3 solution (referred to as Solution 10, hereinafter) was dispensed. The ROS17/2.8 cells were inoculated to a medium at a density of 5×10^3 cells/100 μL/well. After culture of the cells for about 48 hours, the effect of Test Compound and 1α,25-dihydroxyvitamin D3 on the cell growth of the ROS17/2.8 cells was evaluated using the MTT method. Namely, after culture of the cells for about 44 hours, an MTT solution (3-[4,5-dimethylthiazol-2-yl]-2,5-diphenyltetrazolium bromide 2 mg/mL) was added in an amount of 25 μL/well, and the cells were further cultured for four hours. After the medium was removed, DMSO was added in an amount of 100 μL/well so as to dissolve the formed formazan. The amount of the formed formazan was determined by measuring the absorbance (at 560 nm) of the solution by a microplate reader.
The 10% FCS-αMEM comprising Solution 7 was prepared by diluting DMSO by 1000 fold with the 10% FCS-αMEM, and diluting ethanol by 10000 fold with the 10% FCS-αMEM. The 10% FCS-αMEM comprising Solution 8 was prepared by diluting a 2×10^−5M Test Compound solution by 1000 fold with the 10% FCS-αMEM, and diluting ethanol by 10000 fold with the 10% FCS-αMEM. The 10% FCS-αMEM comprising Solution 9 was prepared by diluting 2×10^−3M 1α,25-dihydroxyvitamin D3 solution by 10000 fold with the 10% FCS-αMEM, and diluting DMSO by 1000 fold with the 10% FCS-αMEM. The 10% FCS-αMEM comprising Solution 10 was prepared by diluting a 2×10^−5M Test Compound solution by 1000 fold with the 10% FCS-αMEM, and diluting 2×10^−3M 1α,25-dihydroxyvitamin D3 solution by 10000 fold with the 10% FCS-αMEM.
The amount of the formed formazan in each solution addition group was obtained in terms of a percentage to the average value of the amounts of formed formazan in four wells in a Solution 7 addition group. All the determined values were shown in terms of the average value±standard deviation of the four wells of each solution addition group.

| SMILES | activity at 0.02 µM [%] | Relative index of Solution 10 (a group of a drug combination) | Amount of formed formazan, Solution 10 (a group of a drug combination) | Relative index of Solution 8 (Test Compound alone) |
| --- | --- | --- | --- | --- |
| Cc1nc(-c2ccc(OCCCCCOc3ccc(/C(N)=N/O)cc3)cc2)c(Cn2ccnc2)s1 [Compound 32, N-hydroxy-4-{5-[4-(5-(imidazol-1-ylmethyl)-2-methyl-1,3-thiazol-4-yl]phenoxy}pentoxy}benzamidine] | 97 ± 3.3 | 1.10 | 110 ± 2.4 # % | 0.97 |
| Cc1nc(-c2ccc(OCCCCCOc3ccc(/C(N)=N/O)cc3)cc2)c(CCNC(C)C)s1 [Compound 24, N-hydroxy-4-{5-[4-(5-(2-(isopropylamino)ethyl)-2-methyl-1,3-thiazol-4-yl)phenoxy]pentoxy}benzamidine] | 110 ± 4.4 | 1.18 | 118 ± 2.9 ## % | 1.10 |
| Cc1nc(-c2ccc(OCCCCCOc3ccc(/C(N)=N/O)cc3)cc2)c(CCNCCCOC(C)C)s1 [Compound 25, N-hydroxy-4-{5-[4-(5-(2-(3-(isopropoxy)propylamino)ethyl)-2-methyl-1,3-thiazol-4-yl)phenoxy]pentoxy}benzamidine] | 101 ± 3.2 | 1.12 | 112 ± 1.5 # % | 1.01 |
| CNc1nc(-c2ccc(OCCCCCOc3ccc(/C(N)=N/O)cc3)cc2)c(CC2CCCC2)s1 [Compound 6, N-hydroxy-4-{5-[4-(5-cyclopentylmethyl-2-methylamino-1,3-thiazol-4-yl)phenoxy]pentoxy}benzamidine] | 103 ± 2.5 | 1.13 | 113 ± 1.7 ## % | 1.03 |
| Cc1nc(-c2ccc(OCCCCC(=O)Nc3ccc(/C(N)=N/O)cc3)cc2)c(C(C)C)s1 [Compound 18, N-hydroxy-4-{5-[4-(5-isopropyl-2-methyl-1,3-thiazol-4-yl)phenoxy]pentanoylamino}benzamidine] | 106 ± 5 | 1.15 | 115 ± 3.0 ## % | 1.06 |
| CCN(C)c1nc(-c2ccc(OCCCCCOc3ccc(/C(N)=N/O)cc3)cc2)c(CN2CCOCC2)s1 [Compound 33, N-hydroxy-4-{5-[4-{2-ethylmethylamino-5-(morpholin-4-ylmethyl)-1,3-thiazol-4-yl)phenoxy]pentoxy}benzamidine] | 106 ± 1.7 | 1.13 | 113 ± 1.9 ## % | 1.06 |
| Cc1nc(-c2ccc(OCCCCCOc3ccc(/C(N)=N/O)c(F)c3)cc2)c(C(C)C)s1 [Compound 20, N-hydroxy-2-fluoro-4-{5-[4-(5-isopropyl-2-methyl-1,3-thiazol-4-yl)phenoxy]pentoxy}benzamidine] | 106 ± 3.1 | 1.13 | 113 ± 1.0 ## % | 1.06 |
| Cc1nc(-c2ccc(OCCCCCOc3ccc(/C(N)=N/O)cc3)cc2)c(N(C)C)s1 [Compound 35, N-hydroxy-4-{5-[4-(5-dimethylamino-2-methyl-1,3-thiazol-4-yl)phenoxy]pentoxy}benzamidine] | 101 ± 2.3 | 1.12 | 112 ± 3.0 ## % | 1.01 |
| C=Cc1sc(C)nc1-c1ccc(OCCCCCOc2ccc(/C(N)=N/O)cc2)cc1 [Compound 5, N-hydroxy-4-{5-[4-(5-vinyl-2-methyl-1,3-thiazol-4-yl)phenoxy]pentoxy}benzamidine] | 100 ± 3.7 | 1.10 | 110 ± 2.4 # % | 1.00 |
| CC(C)c1nc(-c2ccc(OCCCCCOc3ccc(/C(N)=N/O)cc3)cc2)c(CCN2CCSCC2)s1 [Compound 27, N-hydroxy-4-{5-[4-(2-isopropyl-5-(2-(thiomorpholin-4-yl)ethyl)-1,3-thiazol-4-yl)phenoxy]pentoxy}benzamidine] | 98 ± 1.9 | 1.12 | 112 ± 0.9 ## % | 0.98 |
| Cc1nc(-c2ccc(OCCCCCOc3ccc(/C(N)=N/O)cc3)cc2)c(CCCl)s1 [Compound 3, N-hydroxy-4-{5-[4-(5-(2-chloroethyl)-2-methyl-1,3-thiazol-4-yl)phenoxy]pentoxy}benzamidine] | 105 ± 3.1 | 1.12 | 112 ± 2.7 # % | 1.05 |
| CNC(=O)c1sc(N)nc1-c1ccc(OCCCCCOc2ccc(/C(N)=N/O)cc2)cc1 [Compound 31, N-hydroxy-4-{5-[4-(2-amino-5-(N-methylcarbamoyl)-1,3-thiazol-4-yl)phenoxy]pentoxy}benzamidine] | 101 ± 2.9 | 1.10 | 110 ± 0.4 # % | 1.01 |
| CN(C)c1nc(-c2ccc(OCCCCCOc3ccc(/C(N)=N/O)cc3)cc2)c(CCN2CCOCC2)s1 [Compound 29, N-hydroxy-4-{5-[4-(2-dimethylamino-5-(2-(morpholin-4-yl)ethyl)-1,3-thiazol-4-yl)phenoxy]pentoxy}benzamidine] | 102 ± 5.6 | 1.14 | 114 ± 2.6 ## % | 1.02 |
| Cc1nc(-c2ccc(OCCCCCN(C)c3ccc(/C(N)=N/O)cc3)cc2)c(C(C)C)s1 [Compound 19, N-hydroxy-4-{5-[4-(5-isopropyl-2-methyl-1,3-thiazol-4-yl)phenoxy]pentylmethylamino}benzamidine] | 108 ± 2.7 | 1.19 | 119 ± 4.8 # % | 1.08 |
| CC(C)c1sc(N(C)Cc2cccnc2)nc1-c1ccc(OCCCCCOc2ccc(/C(N)=N/O)cc2)cc1 [Compound 12, N-hydroxy-4-{5-[4-(5-isopropyl-2-(methyl(pyridin-3-yl-methyl)amino)-1,3-thiazol-4-yl)phenoxy]pentoxy}benzamidine] | 105 ± 3 | 1.15 | 115 ± 4.3 # % | 1.05 |
| CCc1sc(C2CCCCC2)nc1-c1ccc(OCCCCOc2ccc(/C(N)=N/O)cc2)cc1 [Compound 21, N-hydroxy-4-{4-[4-(2-cyclohexyl-5-ethyl-1,3-thiazol-4-yl)phenoxy]butoxy}benzamidine] | 105 ± 2.5 | 1.11 | 111 ± 1.7 # % | 1.05 |
